Each molecule was assayed against T1, human RXFP1 receptor (Homo sapiens, UniProt Q9HBX9) (assay: Intracellular cAMP accumulation assay).
T1 construct: expressed in transfected cells
T1 sequence (Q9HBX9 1-757): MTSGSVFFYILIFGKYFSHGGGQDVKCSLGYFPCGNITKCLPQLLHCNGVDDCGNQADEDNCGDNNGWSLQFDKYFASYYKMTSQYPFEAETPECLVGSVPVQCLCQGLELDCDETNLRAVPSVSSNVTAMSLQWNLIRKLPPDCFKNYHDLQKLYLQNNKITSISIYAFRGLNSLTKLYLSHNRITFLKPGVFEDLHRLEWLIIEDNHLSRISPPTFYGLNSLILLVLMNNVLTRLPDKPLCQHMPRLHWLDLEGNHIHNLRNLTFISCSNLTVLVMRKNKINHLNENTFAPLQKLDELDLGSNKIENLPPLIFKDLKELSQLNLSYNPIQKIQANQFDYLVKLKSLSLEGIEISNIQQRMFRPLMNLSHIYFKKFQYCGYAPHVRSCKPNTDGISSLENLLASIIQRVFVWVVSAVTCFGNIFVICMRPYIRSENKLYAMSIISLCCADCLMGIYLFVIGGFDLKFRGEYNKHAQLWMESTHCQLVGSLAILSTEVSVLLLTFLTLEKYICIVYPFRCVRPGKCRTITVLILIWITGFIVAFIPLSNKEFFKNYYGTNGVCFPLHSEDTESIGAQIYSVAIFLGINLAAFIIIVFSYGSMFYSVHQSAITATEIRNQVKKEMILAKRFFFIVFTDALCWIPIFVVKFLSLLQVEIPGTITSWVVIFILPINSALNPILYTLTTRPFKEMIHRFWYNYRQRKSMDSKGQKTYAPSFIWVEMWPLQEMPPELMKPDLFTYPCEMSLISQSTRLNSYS
Format: cell-based
CCCCCCCCCCCCCCC(=O)NCC(=O)NCC(=O)NCC(=O)N[C@@H](CCC(=O)O)C(=O)N[C@@H](CCC(=O)O)C(=O)N1CCC[C@H]1C(=O)N[C@@H](CCC(=O)O)C(=O)N[C@@H](CCC(=O)O)C(=O)N[C@@H](CCC(=O)O)C(=O)N[C@@H](CCC(=O)O)C(=O)N1CCC[C@H]1C(=O)N[C@@H](CCC(=O)O)C(=O)N[C@@H](CCC(=O)O)C(=O)N[C@@H](CCC(=O)O)C(=O)N[C@@H](CCC(=O)O)C(=O)N1CCC[C@H]1C(=O)N[C@@H](CCC(=O)O)C(=O)N[C@@H](CCC(=O)O)C(=O)N[C@@H](CCC(=O)O)C(=O)N[C@@H](CCC(=O)O)C(=O)NCCON=C(C)c1ccc(C[C@H](N)C(=O)N[C@@H](CC(C)C)C(=O)N[C@@H](Cc2ccc(O)cc2)C(=O)N[C@@H](CO)C(=O)N[C@@H](C)C(=O)N[C@@H](CC(C)C)C(=O)N[C@@H](C)C(=O)N[C@@H](CC(N)=O)C(=O)N[C@@H](CCCCN)C(=O)N[C@H]2CSSC[C@@H]3NC(=O)CNC(=O)[C@H](C(C)C)NC(=O)[C@H](Cc4c[nH]cn4)NC(=O)[C@H](CSSC[C@H](NC(=O)[C@H](CC(C)C)NC(=O)[C@H](CCCCN)NC(=O)[C@@H](NC(=O)[C@@H](NC(=O)[C@H](CCC(=O)O)NC(=O)[C@H](CCC(=O)O)NC(=O)[C@H](CCSC)NC(=O)[C@H](Cc4c[nH]c5ccccc45)NC(=O)[C@H](CO)NC(=O)[C@H](C)N)C(C)C)[C@@H](C)CC)C(=O)NCC(=O)N[C@@H](CCCNC(=N)N)C(=O)N[C@@H](CCC(=O)O)C(=O)N[C@@H](CC(C)C)C(=O)N[C@@H](C(C)C)C(=O)N[C@@H](CCCNC(=N)N)C(=O)N[C@@H](C)C(=O)N[C@@H](CCC(N)=O)C(=O)N[C@@H]([C@@H](C)CC)C(=O)N[C@@H](C)C(=O)N[C@@H]([C@@H](C)CC)C(=O)N[C@H](C(=O)NCC(=O)N[C@@H](CCSC)C(=O)N[C@@H](CO)C(=O)N[C@H](C(=O)N[C@@H](Cc4c[nH]c5ccccc45)C(=O)N[C@@H](CO)C(=O)O)[C@@H](C)O)CSSC[C@@H](C(=O)O)NC(=O)[C@H](Cc4ccccc4)NC(=O)[C@H](CCCNC(=N)N)NC(=O)[C@H](C)NC(=O)[C@H](CC(C)C)NC(=O)[C@H](CO)NC(=O)[C@H](CCCNC(=N)N)NC(=O)[C@H](CCCCN)NC(=O)[C@H]([C@@H](C)O)NC3=O)NC2=O)cc1 showed an EC50 of 0.16 nM. CC[C@H](C)[C@@H]1NC(=O)[C@H](C)NC(=O)[C@H]([C@@H](C)CC)NC(=O)[C@H](CCC(N)=O)NC(=O)[C@H](C)NC(=O)[C@H](CCCNC(=N)N)NC(=O)[C@H](C(C)C)NC(=O)[C@H](CC(C)C)NC(=O)[C@H](CCC(=O)O)NC(=O)[C@H](CCCNC(=N)N)NC(=O)CNC(=O)[C@@H](NC(=O)[C@H](CC(C)C)NC(=O)[C@H](CCCCN)NC(=O)[C@@H](NC(=O)[C@@H](NC(=O)[C@H](CCC(=O)O)NC(=O)[C@H](CCC(=O)O)NC(=O)[C@H](CCSC)NC(=O)[C@H](Cc2c[nH]c3ccccc23)NC(=O)[C@H](CO)NC(=O)[C@H](C)N)C(C)C)[C@@H](C)CC)CSSC[C@@H]2NC(=O)[C@@H](NC(=O)[C@H](CCCCN)NC(=O)[C@H](CC(N)=O)NC(=O)[C@H](C)NC(=O)[C@H](CC(C)C)NC(=O)[C@H](C)NC(=O)[C@H](CO)NC(=O)[C@H](Cc3ccc(O)cc3)NC(=O)[C@H](CC(C)C)NC(=O)[C@@H](N)Cc3ccc(C(C)=NOCCNC(=O)[C@H](CCCCN)NC(=O)[C@H](CCCCN)NC(=O)[C@H](CO)NC(=O)CNC(=O)CNC(=O)[C@H](CO)NC(=O)CNC(=O)CNC(=O)[C@H](CCC(=O)O)NC(=O)CCCCCCCCCCCCC(=O)O)cc3)CSSC[C@H](NC(=O)CNC(=O)[C@H](C(C)C)NC(=O)[C@H](Cc3c[nH]cn3)NC2=O)C(=O)N[C@@H]([C@@H](C)O)C(=O)N[C@@H](CCCCN)C(=O)N[C@@H](CCCNC(=N)N)C(=O)N[C@@H](CO)C(=O)N[C@@H](CC(C)C)C(=O)N[C@@H](C)C(=O)N[C@@H](CCCNC(=N)N)C(=O)N[C@@H](Cc2ccccc2)C(=O)N[C@H](C(=O)O)CSSC[C@@H](C(=O)NCC(=O)N[C@@H](CCSC)C(=O)N[C@@H](CO)C(=O)N[C@H](C(=O)N[C@@H](Cc2c[nH]c3ccccc23)C(=O)N[C@@H](CO)C(=O)O)[C@@H](C)O)NC1=O [AQ1-KKSGGSGG-Glu^α-C13-COOH] gave an EC50 of 0.27 nM. Molecule CCCCCCCCCCCCCCC(=O)N[C@@H](CCC(=O)N[C@@H](CCC(=O)O)C(=O)N[C@@H](CCC(=O)O)C(=O)N[C@@H](CCC(=O)O)C(=O)N[C@@H](CCC(=O)O)C(=O)N[C@@H](CCC(=O)O)C(=O)N[C@@H](CCC(=O)O)C(=O)NCCON=C(C)c1ccc(C[C@H](N)C(=O)N[C@@H](CC(C)C)C(=O)N[C@@H](Cc2ccc(O)cc2)C(=O)N[C@@H](CO)C(=O)N[C@@H](C)C(=O)N[C@@H](CC(C)C)C(=O)N[C@@H](C)C(=O)N[C@@H](CC(N)=O)C(=O)N[C@@H](CCCCN)C(=O)N[C@H]2CSSC[C@@H]3NC(=O)CNC(=O)[C@H](C(C)C)NC(=O)[C@H](Cc4c[nH]cn4)NC(=O)[C@H](CSSC[C@H](NC(=O)[C@H](CC(C)C)NC(=O)[C@H](CCCCN)NC(=O)[C@@H](NC(=O)[C@@H](NC(=O)[C@H](CCC(=O)O)NC(=O)[C@H](CCC(=O)O)NC(=O)[C@H](CCSC)NC(=O)[C@H](Cc4c[nH]c5ccccc45)NC(=O)[C@H](CO)NC(=O)[C@H](C)N)C(C)C)[C@@H](C)CC)C(=O)NCC(=O)N[C@@H](CCCNC(=N)N)C(=O)N[C@@H](CCC(=O)O)C(=O)N[C@@H](CC(C)C)C(=O)N[C@@H](C(C)C)C(=O)N[C@@H](CCCNC(=N)N)C(=O)N[C@@H](C)C(=O)N[C@@H](CCC(N)=O)C(=O)N[C@@H]([C@@H](C)CC)C(=O)N[C@@H](C)C(=O)N[C@@H]([C@@H](C)CC)C(=O)N[C@H](C(=O)NCC(=O)N[C@@H](CCSC)C(=O)N[C@@H](CO)C(=O)N[C@H](C(=O)N[C@@H](Cc4c[nH]c5ccccc45)C(=O)N[C@@H](CO)C(=O)O)[C@@H](C)O)CSSC[C@@H](C(=O)O)NC(=O)[C@H](Cc4ccccc4)NC(=O)[C@H](CCCNC(=N)N)NC(=O)[C@H](C)NC(=O)[C@H](CC(C)C)NC(=O)[C@H](CO)NC(=O)[C@H](CCCNC(=N)N)NC(=O)[C@H](CCCCN)NC(=O)[C@H]([C@@H](C)O)NC3=O)NC2=O)cc1)C(=O)O [AQ1-EEEEEE-Glu^γ-C14-CH3] has an EC50 of 0.38 nM. Molecule CC[C@H](C)[C@@H]1NC(=O)[C@H](C)NC(=O)[C@H]([C@@H](C)CC)NC(=O)[C@H](CCC(N)=O)NC(=O)[C@H](C)NC(=O)[C@H](CCCNC(=N)N)NC(=O)[C@H](C(C)C)NC(=O)[C@H](CC(C)C)NC(=O)[C@H](CCC(=O)O)NC(=O)[C@H](CCCNC(=N)N)NC(=O)CNC(=O)[C@@H](NC(=O)[C@H](CC(C)C)NC(=O)[C@H](CCCCN)NC(=O)[C@@H](NC(=O)[C@@H](NC(=O)[C@H](CCC(=O)O)NC(=O)[C@H](CCC(=O)O)NC(=O)[C@H](CCSC)NC(=O)[C@H](Cc2c[nH]c3ccccc23)NC(=O)[C@H](CO)NC(=O)[C@H](C)N)C(C)C)[C@@H](C)CC)CSSC[C@@H]2NC(=O)[C@@H](NC(=O)[C@H](CCCCN)NC(=O)[C@H](CC(N)=O)NC(=O)[C@H](C)NC(=O)[C@H](CC(C)C)NC(=O)[C@H](C)NC(=O)[C@H](CO)NC(=O)[C@H](Cc3ccc(O)cc3)NC(=O)[C@H](CC(C)C)NC(=O)[C@@H](N)Cc3ccc(/C(C)=N/OCCNC(=O)[C@H](CCCCN)NC(=O)CNC(=O)CNC(=O)CNC(=O)[C@H](CO)NC(=O)CC[C@H](NC(=O)CCCCCCCCCCCCCC(=O)O)C(=O)O)cc3)CSSC[C@H](NC(=O)CNC(=O)[C@H](C(C)C)NC(=O)[C@H](Cc3c[nH]cn3)NC2=O)C(=O)N[C@@H]([C@@H](C)O)C(=O)N[C@@H](CCCCN)C(=O)N[C@@H](CCCNC(=N)N)C(=O)N[C@@H](CO)C(=O)N[C@@H](CC(C)C)C(=O)N[C@@H](C)C(=O)N[C@@H](CCCNC(=N)N)C(=O)N[C@@H](Cc2ccccc2)C(=O)N[C@H](C(=O)O)CSSC[C@@H](C(=O)NCC(=O)N[C@@H](CCSC)C(=O)N[C@@H](CO)C(=O)N[C@H](C(=O)N[C@@H](Cc2c[nH]c3ccccc23)C(=O)N[C@@H](CO)C(=O)O)[C@@H](C)O)NC1=O [AQ1-KGGGS-Glu^γ-C14-COOH] has an EC50 of 0.34 nM.
